Data on 11 compounds can be found in ChEMBL document CHEMBL3751832, “Synthesis, in vitro and computational studies of 1,4-disubstituted 1,2,3-triazoles as potential α-glucosidase inhibitors” (Bioorg Med Chem Lett, 2016).

pIC50: −log10 of the molar value. Where a name gives a salt, the structure may show the parent alone.

The experiment in a line: Inhibition of yeast type-3 alpha-glucosidase using p-nitrophenyl-alpha-D-glucopyranoside as substrate after 30 mins. On the set-up: species or system Saccharomyces cerevisiae.

Usually pIC50 stands for the IC50 on a negative log10 scale, so that one unit is a factor of ten. A low value points to a high IC50.

`O=[N+]([O-])c1ccc(-n2cc(-c3ccccc3)nn2)cc1` gave a pIC50 of 3.63.

Take `CC(=O)c1cccc(-n2cc(C3(O)CCCCC3)nn2)c1`: the pIC50 was 3.49. The pIC50 values of the last two compounds are within 0.2 log units of each other.

`COc1cccc(-n2cc(C3(O)CCCCC3)nn2)c1` showed a negative logarithm of the IC50 (pIC50) of 3.61.

`CC(=O)c1ccccc1-n1cc(-c2ccccc2)nn1` had a pIC50 of 3.50.

For the compound `OC1(c2cn(-c3ccccc3Cl)nn2)CCCCC1`, the pIC50 was 3.43.

Regarding `CC(=O)c1cccc(-n2cc(-c3ccccc3)nn2)c1`, the negative logarithm of the IC50 (pIC50) was 3.58.

`N#Cc1cc([N+](=O)[O-])ccc1-n1cc(C2(O)CCCCC2)nn1` had a pIC50 of 4.30.

As for `O=[N+]([O-])c1ccc(-n2cc(C3(O)CCCCC3)nn2)cc1`, the pIC50 is 3.49.

In the case of `Clc1ccccc1-n1cc(-c2ccccc2)nn1`, the negative-log IC50 (pIC50) was 4.24.

The compound `COC(=O)Cn1cc(-c2ccccc2)nn1` gave a pIC50 of 3.59.

In turn, `OC[C@H]1NC[C@H](O)[C@@H](O)[C@@H]1O` [DUVOGLUSTAT HYDROCHLORIDE] gave a negative logarithm of the IC50 (pIC50) of 5.46.
